Where “and” joins values, the source holds several entries; their conditions need not be identical. Equal values may be shown once. Read-outs that look alike come from different tables or passages of the source.
Experiments:
[1] = tested on: P. falciparum Dd2 Cytb F123L; experiment: SYBR Green ABS proliferation assay, NCGC00473217 selected clone G08; assay type: cell-based, Plasmodium falciparum; design: log AC50, mean: unit: log10(M); conditions: for AC50: Plasmodium falciparum
Procedure, shortened: (§1)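 72 h SYBR Green-I read; % response = relative growth vs controls. Clones from resistance selection, cloned by limiting dilution; 37 °C, 5% CO2/5% O2/90% N2.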

[2] = tested on: P. falciparum Dd2 (clone B2) asexual blood stage parasites; experiment: P. falciparum Dd2 asexual blood stage SYBR Green-I 72 h proliferation assay (qHTS); assay type: cell-based, Plasmodium falciparum; conditions: Plasmodium falciparum
[3] = tested on: P. falciparum Dd2 Cytb V259L; experiment: SYBR Green ABS proliferation assay, NCGC00473217 selected clone F06; assay type: cell-based, Plasmodium falciparum; design: log AC50, mean: unit: log M; conditions: for AC50: Plasmodium falciparum
Procedure, shortened: as §1

[4] = tested on: P. falciparum Dd2 Cytb A122D; experiment: SYBR Green ABS proliferation assay, NCGC00473217 selected clone F12; assay type: cell-based, Plasmodium falciparum; design: log AC50, mean: unit: Log[M]; conditions: for AC50: Plasmodium falciparum
Procedure, shortened: as §1

[5] = tested on: P. falciparum Dd2 Cytb G131S; experiment: SYBR Green ABS proliferation assay, NCGC00374598 selected clone C11; assay type: cell-based, Plasmodium falciparum; conditions: for AC50: Plasmodium falciparum
Procedure, shortened: as §1

[6] = tested on: Plasmodium falciparum Dd2 asexual blood stage parasites; experiment: microbe, parasite or virus in culture; design: species or system Plasmodium falciparum Dd2 in human erythrocytes; single determination (one 11-point concentration-response curve); conditions: Plasmodium falciparum, DD2, Erythrocyte, 72 h; read-out: AC50
[7] = tested on: T1, Plasmodium falciparum Dd2-attB (parental line), asexual blood stages; experiment: microbe, parasite or virus in culture; design: replicate k of 3 (each line is one of three independent assays; the three lines of one compound and parasite line follow each other); conditions: n = 1; for Individual replicates / Log AC50 (M): 72 h; for AC50: Plasmodium falciparum, DD2, 72 h, read-out: Individual replicates / Log AC50 (converted)
T1 construct: Dd2-attB, the isogenic parental line
Procedure, shortened: (§2)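 We compare activity in parasites carrying fumarate-using yeast DHODH with that in the parental line; mETC or parasite DHODH inhibitors are bypassed by this enzyme. Data come from three independent assays, analysed by two-sided Student's t-tests.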

[8] = tested on: P. berghei-ANKA-GFP-LucCON liver stage parasites in HepG2-A16-CD81EGFP cells; experiment: P. berghei liver stage Pb-Luc assay, Method 1 (UCSD, 1536-well); assay type: cell-based, Plasmodium berghei; conditions: Method 1; Decrease = decreasing P. berghei viability with dose, Increase = increasing signal, Inactive = no dose response
[9] = tested on: T2, Plasmodium falciparum Dd2-attB-ScDHODH (transgenic line expressing yeast DHODH), asexual blood stages; experiment: organism not typed; design: replicate k of 3 (each line is one of three independent assays; the three lines of one compound and parasite line follow each other); conditions: 72 h, n = 1
T2 construct: Dd2-attB-ScDHODH, the transgenic line that expresses yeast DHODH
Procedure, shortened: as §2

[10] = tested on: luciferase-expressing P. berghei liver stage parasites in HepG2 cells; experiment: Inhibition of liver-stage development assay (ILSDA), Method 2 (WRAIR, 96-well); assay type: cell-based, Plasmodium berghei; conditions: for AC50: Plasmodium berghei, HepG2, Method 2
[11] = DD2, […], averaged from three independent replicates, top concentration 29 µM, read-out: Average AC50 (Log[M]), NCGC00473217 clone G08 (Cytb F123L) (converted)
[12] = DD2, Dd2 parental, Hill fit, averaged from three independent replicates, top concentration 29 µM, read-out: Average AC50 (Log[M]), Dd2 (converted)
[13] = DD2, […], averaged from three independent replicates, top concentration 29 µM, read-out: Average AC50 (Log[M]), NCGC00473217 clone F06 (Cytb V259L) (converted)
[14] = DD2, […], averaged from three independent replicates, top concentration 29 µM, read-out: Average AC50 (Log[M]), NCGC00473217 clone F12 (Cytb A122D) (converted)
[15] = DD2, […], averaged from three independent replicates, top concentration 29 µM, read-out: Average AC50 (Log[M]), NCGC00374598 clone C11 (Cytb G131S) (converted)
[16] = DD2, cytochrome b mutant line, second value triple, c6, […], read-out: log AC50, mean (converted)

Row | Structure (SMILES) | AC50 [1, 11] [M] | AC50 [2, 12] [M] | AC50 [3, 13] [M] | AC50 [4, 14] [M] | AC50 [5, 15] [M] | also measured
1 | CCCN1C(CC(C)C)=N[S+](=O)([O-])c2cc(NC(=O)c3ccc(Cl)s3)ccc21 [NCGC00523535-01] | 9.66e-06 | 1.53e-06 | 7.1e-06 | 5.86e-06 | 1e-06 | –
2 | CCCN1C(CC(C)C)=N[S+](=O)([O-])c2cc(NC(=O)c3coc4ccccc34)ccc21 [NCGC00521147-01] | 8.93e-06 | 7.38e-06 | 2.24e-06 | 5.64e-06 | 8.43e-06 | –
3 | CCCN1C(CC(C)C)=N[S+](=O)([O-])c2cc(NC(=O)C3CCCCC3)ccc21 [NCGC00521107-01] | 8.93e-06 | 6.32e-06 | 5.02e-06 | 1.04e-05 | 6.32e-06 | –
4 | CC(=O)Nc1ccc(CN2CCc3nc(C(C)C)nc(-c4ccc(Cl)cc4)c3CC2)cc1 [NCGC00374598-01] | – | – | – | – | – | AC50 ([1]; DD2, cytochrome b mutant line, fifth value triple, c15, […], read-out: log AC50, mean (converted)): 7.78e-07 M; AC50 [6]: 2.66 µM; AC50 ([3]; DD2, cytochrome b mutant line, third value triple, c9, […], read-out: log AC50, mean (converted)): 4.91e-06 M; Individual replicates / Log AC50 (M) [7]: -5.6986 Log AC50 (M) and -5.7986 Log AC50 (M); AC50 [7]: 1.26 µM; Max Resp (signal direction of the dose response) [8]: Decrease; Individual replicates / Log AC50 (M) [9]: -5.1486 Log AC50 (M) and -4.9986 Log AC50 (M) and -5.3986 Log AC50 (M); AC50 ([4]; DD2, cytochrome b mutant line, fourth value triple, c12, […], read-out: log AC50, mean (converted)): 3.35e-06 M; Max Resp (signal direction of the dose response) ([10]; Method 2, Decrease = decreasing P. berghei viability with dose, Increase = increasing signal, Inactive = no dose response): Decrease; AC50 ([10]; Hill fit, 50% of maximum activity response, read-out: AC50): 0.501 µM; AC50 ([10]; log10 of molar AC50 from Hill fit, read-out: Log AC50 (converted)): 0.501 µM; AC50 [5, 16]: 4.91e-06 M
5 | CCCN1C(CC(C)C)=N[S+](=O)([O-])c2cc(NC(=O)c3sccc3Cl)ccc21 [NCGC00531529-01] | 2.24e-06 | 2.24e-06 | 3.7e-06 | 6.1e-07 | 5.86e-07 | –
6 | CCCN1C(CC(C)C)=N[S+](=O)([O-])c2cc(NC(=O)c3c(F)cccc3F)ccc21 [NCGC00531536-01] | 5.64e-06 | 1.59e-05 | 1.22e-05 | 1e-05 | 1.22e-05 | –
7 | CCCN1C(CC(C)C)=N[S+](=O)([O-])c2cc(NC(=O)c3cccc(F)c3)ccc21 [NCGC00523538-01] | 1.12e-05 | 3.85e-06 | 1e-06 | 2.72e-06 | 2.08e-06 | –
8 | CCCN1C(CC(C)C)=N[S+](=O)([O-])c2cc(NC(=O)c3nccs3)ccc21 [NCGC00521040-01] | 6.7e-06 | 9.29e-06 | 1.31e-05 | 7.1e-06 | 8.28e-07 | –
9 | CCCN1C(CC(C)C)=N[S+](=O)([O-])c2cc(NC(=O)c3ccccc3OC(F)(F)F)ccc21 [NCGC00531535-01] | 1.04e-05 | 1.59e-05 | 9.29e-06 | 1.08e-05 | 8.93e-06 | –
10 | O=C1C(O)=C([C@H]2CC[C@H](c3ccc(Cl)cc3)CC2)C(=O)c2ccccc21 [Atovaquone, atovaquone, reference compound] | – | – | – | – | – | susceptibility of F123L mutant compared to parental line [1]: significantly more susceptible; AC50 ([1]; DD2, NCGC00473217 selected clone, read-out: AC50 Log[M] ± SD, Cytb F123L (converted)): 8.71e-10 M; AC50 ([1]; DD2, Suppl Table 6, read-out: AC50 (mM), Dd2 Cytb F123L): 9e-10 M; AC50 ([2]; DD2, 72 h, SYBR Green 72 h, WT Dd2-B2, read-out: AC50 Log[M] ± SD, Dd2-B2 (parental line) (converted)): 3.31e-09 M; AC50 ([2]; DD2, Suppl Table 6, read-out: AC50 (mM), WT (Dd2-B2)): 3.3e-09 M; susceptibility of V259L variant compared to parental line [3]: significantly less susceptible; AC50 ([3]; DD2, NCGC00473217 selected clone, read-out: AC50 Log[M] ± SD, Cytb V259L (converted)): 2.34e-08 M; AC50 ([3]; DD2, Suppl Table 6, read-out: AC50 (mM), Dd2 Cytb V259L): 2.34e-08 M; susceptibility of A122D mutant compared to parental line [4]: significantly more susceptible; AC50 ([4]; DD2, NCGC00473217 selected clone, read-out: AC50 Log[M] ± SD, Cytb A122D (converted)): 5.5e-10 M; AC50 ([4]; DD2, Suppl Table 6, read-out: AC50 (mM), Dd2 Cytb A122D): 5.5e-10 M; potency in G131S mutant lines compared to parental line [5]: potency was not compromised; AC50 ([5]; DD2, NCGC00374598 selected clone, read-out: AC50 Log[M] ± SD, Cytb G131S (converted)): 2.19e-09 M; AC50 ([5]; DD2, Suppl Table 6, read-out: AC50 (mM), Dd2 Cytb G131S): 2.2e-09 M
11 | CCCN1C(CC(C)C)=N[S+](=O)([O-])c2cc(NC(=O)c3ccc(F)cc3F)ccc21 [NCGC00523543-01] | 3.56e-07 | 3.99e-06 | 3.36e-06 | 1.93e-06 | 2e-06 | –
12 | CCCN1C(CC(C)C)=N[S+](=O)([O-])c2cc(NC(=O)c3sccc3C)ccc21 [NCGC00521035-01] | 9.46e-06 | 1.59e-06 | 6.84e-06 | 2.82e-06 | 1.65e-06 | –
13 | Oc1ccc(-c2nc(C3CC3)nc3c2CCN(CC2CCCCC2)CC3)cc1 [NCGC00480361-01] | – | – | – | – | – | log AC50, mean ([1]; cytochrome b mutant line, fifth value triple, c15, […]): -5.309; AC50 [6]: 4.73 µM; log AC50, mean ([3]; cytochrome b mutant line, third value triple, c9, […]): -5.075; Individual replicates / Log AC50 (M) [7]: -5.4486 Log AC50 (M) and -5.3986 Log AC50 (M); AC50 [7]: 4.48 µM; Individual replicates / Log AC50 (M) [9]: -5.2486 Log AC50 (M) and -5.1486 Log AC50 (M); log AC50, mean ([4]; cytochrome b mutant line, fourth value triple, c12, […]): -5.009; Activity direction (Decrease / Inactive) ([10]; P. berghei liver stage, Method 2, dose response): Inactive; AC50 [5, 16]: 6.43e-06 M
14 | CCCN1C(CC(C)C)=N[S+](=O)([O-])c2cc(NC(=O)c3ccccc3F)ccc21 [NCGC00523540-01] | 2.72e-06 | 4.66e-06 | 2.16e-06 | 2.82e-06 | 4.48e-06 | –
15 | CCCN1C(CC(C)C)=N[S+](=O)([O-])c2cc(NC(=O)C3CCC3)ccc21 [NCGC00521095-01] | 6.7e-06 | 3.17e-06 | 2.99e-06 | 1e-05 | 3.36e-07 | –
16 | CCCN1C(CC(C)C)=N[S+](=O)([O-])c2cc(NC(=O)c3cc(F)cc(F)c3)ccc21 [NCGC00523544-01] | 1.08e-05 | 5.43e-06 | 7.1e-06 | 9.66e-06 | 5.02e-06 | –

— paper PMC7822874, “Chemoprotective antimalarials identified through quantitative high-throughput screening of Plasmodium blood and liver stage parasites” (Scientific Reports, 2021)
